Reference: paper PMC3899824 (Investigational new drugs, 2013)
Read-outs that look alike come from different tables or passages of the source. *: point of attachment. Cbz = O=C(OCc1ccccc1)*; CH2F = FC*

Key:
tubulin = test: Cell-free tubulin polymerization assay; assay type: biochemical; settings: 60m at 340 nm
[1] = tested on: 8226/S multiple myeloma cells; test: Apoptosis by AnnexinV/PI flow cytometry, 8226/S; assay type: cell-based, human
[2] = tested on: MM.1S multiple myeloma cells; test: Apoptosis by AnnexinV/PI flow cytometry, MM.1S; assay type: cell-based, human
8226/S myeloma cells = settings: read-out: IC50, nM (Mean ± SEM), 72h, MTT
[3] = tested on: 8226/IM10 myeloma cells (imexon-resistant); settings: read-out: IC50, nM (Mean ± SEM); 8226/IM10, 72h, MTT
[4] = tested on: 8226/Dox40 myeloma cells (MDR-1 overexpressing); settings: read-out: IC50, nM (Mean ± SEM); 8226/Dox40, 72h, MTT
NIH-H929 myeloma cells = settings: read-out: IC50, nM (Mean ± SEM); NIH-H929, 72h, MTT
MM.1S myeloma cells = settings: read-out: IC50, nM (Mean ± SEM), 72h, MTT
U266 myeloma cells = settings: read-out: IC50, nM (Mean ± SEM); U266, 72h, MTT
OCI-AML3 leukemia cells = settings: read-out: IC50, nM (Mean ± SEM); OCI-AML3, 72h, MTT
MV-4-11 leukemia cells = settings: read-out: IC50, nM (Mean ± SEM); MV-4-11, 72h, MTT
[5] = tested on: MiaPaCa-2 pancreatic cells; settings: read-out: IC50, nM (Mean ± SEM); MiaPaCa-2, 72h, MTT
Panc-1 pancreatic cells = settings: read-out: IC50, nM (Mean ± SEM); Panc-1, 72h, MTT
BxPC-3 pancreatic cells = settings: read-out: IC50, nM (Mean ± SEM); BxPC-3, 72h, MTT
MDA-MB231 breast cells = settings: read-out: IC50, nM (Mean ± SEM); MDA-MB231, 72h, MTT
MCF-7 breast cells = settings: read-out: IC50, nM (Mean ± SEM); MCF-7, 72h, MTT
PC-3 prostate cells = settings: read-out: IC50, nM (Mean ± SEM); PC-3, 72h, MTT
DU-145 prostate cells = settings: read-out: IC50, nM (Mean ± SEM); DU-145, 72h, MTT
HCT-116 colon cells = settings: read-out: IC50, nM (Mean ± SEM); HCT-116 parental, 72h, MTT
[6] = tested on: HCT-116 DPC4 (−/−) colon cells
[7] = tested on: H69S small cell lung cancer cells; settings: read-out: IC50, nM (Mean ± SEM), 72h, MTT
[8] = tested on: H929 multiple myeloma cells; settings: H929, 24h, 25-100 nM
[9] = tested on: MM.1S multiple myeloma cells; settings: 24h, 25-100 nM
[10] = tested on: U266 multiple myeloma cells; settings: U266, 24h, 25-100 nM
[11] = tested on: 8226/S multiple myeloma cells; settings: 24h, 25-100 nM
[12] = tested on: 8226/S multiple myeloma cells
[13] = tested on: MM.1S multiple myeloma cells
[14] = tested on: OCI-AM-3 (Acute Myeloid Leukemia) human tumor xenograft; settings: 55 mg/kg IP, Dailyx5, off 5d, repeat 1×
[15] = tested on: MV-4-11 (Acute Myeloid Leukemia) human tumor xenograft; settings: 55 mg/kg IP, Dailyx5, off 5d, repeat 2×
[16] = tested on: DU-145 (Prostate Cancer) human tumor xenograft; settings: 55 mg/kg IP, Dailyx5, off 7d, repeat 2×
[17] = tested on: PC-3 (Prostate Cancer) human tumor xenograft; settings: 55 mg/kg IP, Dailyx5, off 5d, repeat 1×
[18] = 50–55 mg/kg IP, daily × 5 days, 5 to 7 days off, 2–3 courses
[19] = SCID mice; for AUC: variance per Yuan in brackets
[20] = not given; remark: listed apart in the source
[21] = tested on: DPC4 (-/-) BxPC3 pancreatic cancer cell line vs DPC4 (+/+) isogenic cell line; settings: cited from earlier work
[22] = tested on: human MiaPaCa-2 pancreatic cancer cell line xenograft; settings: SCID mice bearing MiaPaCa-2 flank tumors; cited from earlier work
TRK-B = settings: at pharmacologically-achievable concentrations; cited from earlier work
PDGF-alpha = settings: at pharmacologically-achievable concentrations; cited from earlier work
PDGF-beta = settings: at pharmacologically-achievable concentrations; cited from earlier work
FLT-1 = settings: FLT-1, at pharmacologically-achievable concentrations; cited from earlier work
[23] = tested on: human pancreatic cancer cells; settings: cited from earlier work
[24] = tested on: 8226/S (Multiple Myeloma) human tumor xenograft; test: Xenograft efficacy, 8226/S; settings: 50 mg/kg IP
[25] = tested on: caspases 3, 8 and 9 in MM.1S cells; test: Western blot of caspases 3, 8 and 9; settings: 24h, 0 – 500 nM
8226/Dox40 cell line = settings: no reference given; cited from earlier work
[26] = 200 nM PC-046 24h, without active caspase inhibitor
[27] = 5 μM pan-caspase inhibitor 30m before 200 nM PC-046 24h
[28] = colcemid-treated, concentration not given
[29] = 5 μM caspase 8 inhibitor 30m before 200 nM PC-046 24h

## COc1ccc(-c2cnc(-c3ccncc3-c3cccc(OC)c3)o2)cc1 [PC-046, 5-(4-methoxyphenyl)pyridine-4-yl]
tubulin; 5 μM
  effect on tubulin polymerization: inhibits tubulin polymerization
[1]; [26]
  AnnexinV-positive cells: 30.7%
[2]; [26]
  AnnexinV-positive cells: 32.6%
8226/S myeloma cells
  IC50: 134 ± 13.8 nM
[3]
  IC50: 102 ± 27.5 nM
[4]
  IC50: 188 ± 6.1 nM
NIH-H929 myeloma cells
  IC50: 163 ± 13.9 nM
MM.1S myeloma cells
  IC50: 162 ± 39.6 nM
U266 myeloma cells
  IC50: 70.1 ± 16.2 nM
OCI-AML3 leukemia cells
  IC50: 177 ± 31.8 nM
MV-4-11 leukemia cells
  IC50: 193 ± 10.8 nM
[5]
  IC50: 296 ± 72.1 nM
Panc-1 pancreatic cells
  IC50: 215 ± 49.4 nM
BxPC-3 pancreatic cells
  IC50: 199 ± 48.2 nM
MDA-MB231 breast cells
  IC50: 206 ± 49.2 nM
MCF-7 breast cells
  IC50: 166 ± 26.3 nM
PC-3 prostate cells
  IC50: 105 ± 30.2 nM
DU-145 prostate cells
  IC50: 160 ± 39.4 nM
HCT-116 colon cells
  IC50: 99.5 ± 15.8 nM
[6]; ratio of IC50 values
  increased activity for the DPC4 (-/-) HCT-116 cell line compared to the wild type HCT-116 cells: roughly 2 fold
[6]; read-out: IC50, nM (Mean ± SEM), HCT-116 DPC4 (−/−), 72h, MTT
  IC50: 52 ± 5.3 nM
[7]
  IC50: 240 ± 10.9 nM
[8]
  cell cycle effect (DNA content): accumulation of cells in the G2/M-phase
[9]
  cell cycle effect (DNA content): accumulation of cells in the G2/M-phase
[10]
  cell cycle effect (DNA content): accumulation of cells in the G2/M-phase
[11]
  cell cycle effect (DNA content): significant accumulation of cells in S-phase
[12]; 150 nM PC-046, 16h, baseline 3.31 (0.14)
  % positive histone H3 cells, mean (SEM): 34.70 (5.84) %
[13]; 150 nM PC-046, 16h, baseline 3.14 (0.15)
  % positive histone H3 cells, mean (SEM): 17.3 (1.28) %
[14]; control 17752.6 (8665.6)
  Mean (SD), mm^3, DPC046 (tumor AUC): 12433.4 (4647.1) mm^3
[14]; vs control, p NS
  Tumor AUC % Change: −29.90%
[15]; control 18702.7 (7654.1)
  Mean (SD), mm^3, DPC046 (tumor AUC): 11309.3 (5293.3) mm^3
[15]; vs control, p 0.0374
  Tumor AUC % Change: −39.50%
[16]; control 69969.6 (22735.3)
  Mean (SD), mm^3, DPC046 (tumor AUC): 45801.8 (23344.4) mm^3
[16]; vs control, p 0.04886
  Tumor AUC % Change: −34.50%
[17]; control 10438.6 (4303.9)
  Mean (SD), mm^3, DPC046 (tumor AUC): 8238.1 (2506.2) mm^3
[17]; vs control, p NS
  Tumor AUC % Change: −21.10%
[18]
  lethality: no lethality
  loss of body weight: about 10%
mouse, in vivo
  lethal acute dose: 150 mg/kg
mouse, in vivo, 150 mg/kg
  time to death after administration: 2 to 5 days
Single dose, non-tumor bearing mice
  acutely tolerated dose: 100 mg/kg
[19]; 100mg/kg IP
  Cmax: 4010 ng/mL
  T ½: 5.17 h
  Tmax: 0.08 h
  AUC: 5.22(0.68) ^# hr* μg/mL
[19]; 100mg/kg IV
  Clearance: 332 mL/min/kg
  Cmax: 1660 ng/mL
  T ½: 8.40 h
  Tmax: 0.17 h
  Vol. Dist.: 240.3 L/kg
  AUC: 5.02 (0.29) ^# hr* μg/mL
[19]; 100mg/kg PO vs IV
  F (bioavailabilty): 0.71
[19]; 100mg/kg PO
  Cmax: 1550 ng/mL
  T ½: 3.17 h
  Tmax: 0.08 h
  AUC: 3.55(0.75) ^# hr* μg/mL
[19]; 100 mg/kg oral gavage compared to the IV route
  oral bioavailability: 71%
[20]; 30 and 60 minutes after 100 mg/kg IP
  mean PC-046 concentrations in the femurs (bone marrow flushings): approximately 0.07 μg/mL
[20]; 30 and 60 minutes after 100 mg/kg IP, converted
  femur concentrations: 195 nM
[20]; 30 minutes after 100 mg/kg IP
  mean plasma concentration: 1750 ng/mL
[20]; 45 minutes after 100 mg/kg IP
  mean plasma concentration: 1930 ng/mL
[20]; 60 minutes after 100 mg/kg IP
  mean plasma concentration: 962 ng/mL
[21]
  selectivity index previously reported: 1.74 x
[22]
  activity against flank tumor xenografts: active
TRK-B
  kinase inhibition in vitro: inhibit
PDGF-alpha
  kinase inhibition in vitro: inhibit
PDGF-beta
  kinase inhibition in vitro: inhibit
FLT-1
  kinase inhibition in vitro: inhibit
[23]
  cell cycle effect: accumulate in G2/M phases
[24]; 8226/S myeloma xenograft
  tumor growth inhibition in vivo (in words): no growth inhibition was observed
[24]; 8226/S, Every third day, repeat 10×, control 27292.6 (13688.8)
  Mean (SD), mm^3, DPC046 (tumor AUC): 28516.9 (9067.3) mm^3
[24]; 8226/S, Every third day, repeat 10×, vs control, p NS
  Tumor AUC % Change: +4.5%
[25]
  caspase activation by western blot: cleavage of three major caspases, 3, 8, and 9

## CC(C)[C@H](NC(=O)c1ccc2ccccc2n1)C(=O)N[C@@H](CC(=O)O)C(=O)COc1c(F)cccc1F [Q-VD-OPh]
[1]; [27]
  AnnexinV-positive cells: 13.5%
[2]; [27]
  AnnexinV-positive cells: 12.8%

## CN[C@H]1CCc2cc(OC)c(OC)c(OC)c2-c2ccc(OC)c(=O)cc21 [colcemid, reference compound]
[12]; [28]
  % positive histone H3 cells, mean (SEM): 39.40 (1.48) %
[13]; [28]
  % positive histone H3 cells, mean (SEM): 12.54 (0.73) %

## CC(=O)O[C@H]1C(=O)[C@@]2(C)[C@H]([C@H](OC(=O)c3ccccc3)[C@]3(O)C[C@H](OC(=O)[C@H](O)[C@@H](NC(=O)c4ccccc4)c4ccccc4)C(C)=C1C3(C)C)[C@]1(OC(C)=O)CO[C@@H]1C[C@@H]2O [paclitaxel]
tubulin; 10 μM
  effect on tubulin polymerization: stabilized tubulin polymerization

## CC[C@]1(O)C[C@H]2CN(CCc3c([nH]c4ccccc34)[C@@](C(=O)OC)(c3cc4c(cc3OC)N(C=O)[C@H]3[C@@](O)(C(=O)OC)[C@H](OC(C)=O)[C@]5(CC)C=CCN6CC[C@]43[C@@H]65)C2)C1 [vincristine]
tubulin; 10 μM
  effect on tubulin polymerization: a reduction in the amount of tubulin polymer formed
8226/Dox40 cell line
  resistance conferred by ABCB1 (Pgp/MDR1): approximately 200 fold

## Cbz-IETD-CH2F
[1]; [29]
  AnnexinV-positive cells: 25.1%
[2]; [29]
  AnnexinV-positive cells: 32.6%
